Results published in US8017786B2, “Substituted β-phenyl-α-hydroxy-propanoic acid, synthesis method and use thereof” (Northwest University, priority 2006, dated 2011).

Assays:
[1] = test system: rats with acute myocardial ischemia; assay: Area of myocardial infarction in rats with acute myocardial ischemia (coronary artery ligation); type: in vivo, rat; conditions: 24 h after coronary artery ligation
Method: (§1) At 0.5 h after the rats of these groups were administered intragastrically, the standard II lead electrocardiogram (before modeling) was recorded, and the height of ST-T segment was measured. The rats of sham operation group were then subjected to coronary artery braid without ligation, and the rats of other groups were subjected to coronary artery ligation in accordance with the following method to establish cute myocardial ischemia models. The rats were subjected to etherization, fixed at supine position, and their normal electrocardiograms (before modeling) were recorded. The skin of left thorax was incised under aseptic conditions, the 4th intercostal muscles were isolated in blunt way, the heart was extruded by light pressure to the right thorax, the left anterior descending coronary artery was ligated at a position 2˜3 mm departing from the left coronary artery origin and between the pulmonary conus and the left auricle of heart, then the heart was sent back to thorax cavity immediately and sutured the incision. Penicillin was smeared topically for the prevention of infections. After operation, the electrocardiogram of postischemia was recorded immediately (at 0 min after modeling), and the height of ST-T segment was measured.

[2] = test system: lactate dehydrogenase (LDH); assay: Serum LDH activity in rats with myocardial ischemia; type: in vivo, rat; conditions: for LDH: serum, 24 h after ligation
Method: as §1

For `CC1(C)C2CCC1(C)C(OC(=O)C(O)Cc1ccc(O)c(O)c1)C2` (stereo not drawn) [bornyl salvianate ester, bornyl β-(3,4-dihydroxylphenyl)-α-hydroxylpropionate ester], the Infarct region weight ([1]; 10 mg/kg intragastric) was 0.20 ± 0.05 g, the Non-infarct region weight ([1]; 10 mg/kg intragastric) was 0.47 ± 0.07 g and the “Percentage (infarct cardiac muscles of whole ventricle, by weight)” value (“Percentage” below) ([1]; 10 mg/kg intragastric) was 30.09 ± 5.69%. It also gave a Ventricle weight ([1]; 10 mg/kg intragastric) of 0.68 ± 0.09 g, an Infarct region weight ([1]; 20 mg/kg intragastric) of 0.18 ± 0.05 g and a Non-infarct region weight ([1]; 20 mg/kg intragastric) of 0.49 ± 0.09 g. For the same compound, the “Percentage” value ([1]; 20 mg/kg intragastric) was 25.73 ± 6.35 %, the Ventricle weight ([1]; 20 mg/kg intragastric) was 0.68 ± 0.08 g and the Infarct region weight ([1]; 40 mg/kg intragastric) was 0.18 ± 0.04 g. For the same compound, the Non-infarct region weight ([1]; 40 mg/kg intragastric) was 0.45 ± 0.06 g, the “Percentage” value ([1]; 40 mg/kg intragastric) was 28.95 ± 5.57 % and the Ventricle weight ([1]; 40 mg/kg intragastric) was 0.63 ± 0.07 g. For the same compound, the LDH ([2]; 10 mg/kg intragastric) was 1663.7 ± 374.43 U/L, the LDH ([2]; 20 mg/kg intragastric) was 2022.7 ± 202.63 U/L and the LDH ([2]; 40 mg/kg intragastric) was 1712.5 ± 209.1 U/L. The “activity of lactate dehydrogenase (LDH) (in words)” value ([2]; all dose groups, 24 h later) was “decreased”.
